# Measured values published in patent US7141252B2, “Composition for the treatment of burns, sunburns, abrasions, ulcers and cutaneous irritation” (priority 2003, dated 2006).
# Tested on: burns
# Test: Treating burns with different combinations of the ingredients
# Format: in vivo
# Conditions: topical treatment of burns, comparison of ingredient combinations
structure (smiles),measurement,value
OB(O)O [boric acid],healing of burns,appeared to advance healing without infection but only in a very limited fashion
